# Test results as given in paper PMC12057046, “Elucidation of short linear motif-based interactions of the MIT and rhodanese domains of the ubiquitin-specific protease 8” (Biology Direct, 2025).
# Biological target: T1, USP8 Rhod domain (Homo sapiens, UniProt P40818)
# T1 construct: USP8 Rhod (174–317) (UniProt: P40818); GST (cleaved yes); made in house; host or cells: Escherichia coli BL21-Gold (DE3)
# T1 sequence (P40818 174-317): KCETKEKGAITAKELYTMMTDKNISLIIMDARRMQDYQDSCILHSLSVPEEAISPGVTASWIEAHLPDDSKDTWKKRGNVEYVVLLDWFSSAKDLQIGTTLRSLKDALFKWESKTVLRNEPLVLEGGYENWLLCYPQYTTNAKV
# Test: Peptide-phage display-based deep mutational scanning (DMS), USP8 Rhod domain
# Assay type: binding
# Settings: ProP-PD pairs, bait USP8_Rhodanese__P40818_174_317; wild-type/mutant pair, wild type KIAA1614 569-584 GMERVLGGLSSPLRLL (wt_00013)
# Procedure: Four rounds of phage selections were carried out using the second generation human disorderome library or the constructed deep mutational scanning library. At least three individual replicates were used for each bait protein. 10 µg of GST-tagged proteins or GST control (diluted in PBS from the stock of proteins kept in the purification elution buffer) were immobilized in 100 µL PBS on a 96-well MaxiSorp (Nunc) plate overnight at 4 °C. The plates were incubated with blocking buffer (with 0.5% BSA in PBS) for 1 h at 4 °C followed by washing with 0.05% Tween 20 in PBS four times. The naïve phage library (10^11 CFU) was diluted in 1/5th volume PEG/NaCl (20% PEG-8000, 0.4 M NaCl) and 1X PBS, incubated on ice for 10 min and centrifuged at 10,000 [drawing 3] g for 10 min. The pellet was resuspended in the volume of PBS (100 µL/ well). The GST-coated control plate was incubated with 100 µL library per well in PBS for 1 h at 4 °C to remove non-specific binders. The supernatant was transferred to the target wells and incubated for 2 h at 4 °C. The wells were washed five times with 0.05% Tween 20 in PBS and the bound phages were eluted with 100 µL per well log-phase E. coli OmniMAX by incubating at 37° C while shaking. After 30 min, M13KO7 helper phages were added and incubated for an additional 45 min. The bacterial cultures were transferred to 1 mL 2YT supplemented with 100 µg/mL carbenicillin, 30 µg/mL kanamycin and 0.3 mM IPTG and grew overnight at 37 °C while shaking. The following day the cultures were centrifuged for 10 min at 2,000 [drawing 4] g, 4 °C. 1/10th volume of 10 [drawing 5] PBS was added to adjust the pH and heated at 65 °C for 10 min. The phage pools from each round were used as in-phages for the next round of selections.
# The samples were prepared for NGS as previously described. […] The PCR products were normalized with 25 µL Mag-bind Total Pure NGS beads (Omega Biotek) and 10 µL of each eluted sample (Qiagen Elution Buffer) was pooled and cleaned-up with a PCR purification kit (Qiagen). The PCR product was confirmed by 2% agarose electrophoresis and the band was extracted with QIAquick Gel extraction Kit (Qiagen) and eluted with 30 µL TE buffer. The dsDNA was quantified using QuantiT PicoGreen dsDNA Assay Kit (Thermo Fisher) and sent for NGS (Illumina MiSeq v3, 1 × 150 bp read setup, 20% PhiX, NGI SciLifeLab facility, Sweden). The NGS data were demultiplexed, adapter regions were trimmed and sequences with an average quality of at least 20 were translated to peptide sequences. The NGS data were analysed using custom Python scripts. The total read NGS counts for each selection experiment of each peptide sequence were compiled and annotated in PepTools (https://slim.icr.ac.uk/tools/peptools/). Since ProP-PD is in essence a competition assay, the possibility of the input phage library influencing the selection outcome was explored. […] Pearson correlation coefficient and p-value were calculated using Python’s SciPy library.
row,Sequence,hit_pair_ratio
1,DMERVLGGLSSPLRLL,1.56
2,EMERVLGGLSSPLRLL,2.87
3,FMERVLGGLSSPLRLL,321.97
4,GAERVLGGLSSPLRLL,-2.65
5,GDERVLGGLSSPLRLL,-4.95
6,GEERVLGGLSSPLRLL,-32.83
7,GFERVLGGLSSPLRLL,1.56
8,GGERVLGGLSSPLRLL,-22.40
9,GHERVLGGLSSPLRLL,-7.73
10,GIERVLGGLSSPLRLL,-4.51
11,GKERVLGGLSSPLRLL,-1.45

# Same assay, conditions: bait USP8_Rhodanese__P40818_174_317; wild-type/mutant pair ratio of averaged fractions; negative values where mutant fraction is higher
row,Sequence,hit_pair_ratio
1,AMERVLGGLSSPLRLL,-9.71
2,GLALWEAKMAQLAERA,-3.11
3,GLALWEAKMDQLAERA,25.01
4,GLALWEAKMEQLAERA,-4.35
5,GLALWEAKMFQLAERA,59.51
6,GLALWEAKMGQLAERA,-1.24
7,GLALWEAKMHQLAERA,-2.45
8,GLALWEAKMIQLAERA,19.96
9,GLALWEAKMKALAERA,133.35
10,GLALWEAKMKDLAERA,-1.51
11,GLALWEAKMKFLAERA,1107.01
12,GLALWEAKMKGLAERA,5.73
13,GLALWEAKMKHLAERA,17.96
14,GLALWEAKMKILAERA,553.50
15,GLALWEAKMKKLAERA,417.62
16,GLALWEAKMKLLAERA,-2.26
17,GLALWEAKMKMLAERA,23.91
18,GLALWEAKMKNLAERA,1.69
19,GLALWEAKMKQAAERA,417.62
20,GLALWEAKMKQFAERA,553.50
21,GLALWEAKMKQIAERA,1107.01
22,GLALWEAKMKQKAERA,1107.01

row,Sequence,hit_pair_ratio
1,GLALWEAKMKQLAARA,114.71
2,GLALWEAKMKQLADRA,175.67
3,GLALWEAKMKQLAEAA,1107.01
4,GLALWEAKMKQLAEDA,66.48
5,GLALWEAKMKQLAEEA,15.47
6,GLALWEAKMKQLAEFA,208.81
7,GLALWEAKMKQLAEGA,5.87
8,GLALWEAKMKQLAEHA,25.68
9,GLALWEAKMKQLAEKA,12.41
10,GLALWEAKMKQLAELA,11.23
11,GLALWEAKMKQLAEMA,12.23
12,GLALWEAKMKQLAENA,55.62
13,GLALWEAKMKQLAEPA,-18.07
14,GLALWEAKMKQLAEQA,-4.51
15,GLALWEAKMKQLAERD,-5.62
16,GLALWEAKMKQLAERE,4.16
17,GLALWEAKMKQLAERF,1107.01
18,GLALWEAKMKQLAERG,73.80
19,GLALWEAKMKQLAERH,208.81
20,GLALWEAKMKQLAERI,-1.09
21,GLALWEAKMKQLAERL,72.57
22,GLALWEAKMKQLAERM,33.55

row,Sequence,hit_pair_ratio
1,GLALWEAKMKQLAERN,-1.05
2,GLALWEAKMKQLAERP,-3.73
3,GLALWEAKMKQLAERQ,3.47
4,GLALWEAKMKQLAERR,553.50
5,GLALWEAKMKQLAERS,1.62
6,GLALWEAKMKQLAERT,1.21
7,GLALWEAKMKQLAERV,-1.88
8,GLALWEAKMKQLAERY,303.23
9,GLALWEAKMKQLAESA,-3.11
10,GLALWEAKMKQLAETA,-1.95
11,GLALWEAKMKQLAEVA,195.90
12,GLALWEAKMKQLAEWA,38.36
13,GLALWEAKMKQLAEYA,-10.12
14,GLALWEAKMKQLAFRA,24.07
15,GLALWEAKMKQLAGRA,14.06
16,GLALWEAKMKQLAIRA,1107.01
17,GLALWEAKMKQLALRA,13.05
18,GLALWEAKMKQLAMRA,7.80
19,GLALWEAKMKQLANRA,73.80
20,GLALWEAKMKQLAQRA,119.01
21,GLALWEAKMKQLASRA,65.49
22,GLALWEAKMKQLATRA,553.50

row,Sequence,hit_pair_ratio
1,GLALWEAKMKQLAVRA,20.13
2,GLALWEAKMKQLAWRA,1107.01
3,GLALWEAKMKQLAYRA,208.81
4,GLALWEAKMKQLDERA,184.50
5,GLALWEAKMKQLEERA,-19.29
6,GLALWEAKMKQLGERA,-3.00
7,GLALWEAKMKQLHERA,1.77
8,GLALWEAKMKQLIERA,369.00
9,GLALWEAKMKQLKERA,184.50
10,GLALWEAKMKQLLERA,31.22
11,GLALWEAKMKQLMERA,81.38
12,GLALWEAKMKQLNERA,17.57
13,GLALWEAKMKQLPERA,87.51
14,GLALWEAKMKQLQERA,2.19
15,GLALWEAKMKQLTERA,133.35
16,GLALWEAKMKQLVERA,-3.40
17,GLALWEAKMKQLYERA,195.90
18,GLALWEAKMKQMAERA,1107.01
19,GLALWEAKMKQRAERA,417.62
20,GLALWEAKMKQSAERA,1107.01
21,GLALWEAKMKRLAERA,29.55

# Same assay, conditions: wild type/mutant pair; bait USP8_Rhodanese__P40818_174_317; vs hit_library_peptide_wt GLALWEAKMKQLAERA; negative where mutant fraction exceeds wild type; ProP-PD pairs (sheet S7.B)
row,Sequence,hit_pair_ratio
1,ELALWEAKMKQLAERA,75.56
2,GAALWEAKMKQLAERA,1107.01
3,GFALWEAKMKQLAERA,114.71
4,GHALWEAKMKQLAERA,175.67
5,GIALWEAKMKQLAERA,1.27
6,GKALWEAKMKQLAERA,369.00
7,GLAAWEAKMKQLAERA,52.20
8,GLADWEAKMKQLAERA,1107.01
9,GLAEWEAKMKQLAERA,52.71
10,GLAFWEAKMKQLAERA,21.29
11,GLAGWEAKMKQLAERA,208.81
12,GLAHWEAKMKQLAERA,369.00
13,GLAIWEAKMKQLAERA,-44.11
14,GLAKWEAKMKQLAERA,1107.01
15,GLALFEAKMKQLAERA,1107.01
16,GLALGEAKMKQLAERA,65.12
17,GLALHEAKMKQLAERA,1107.01

row,Sequence,hit_pair_ratio
1,GLALKEAKMKQLAERA,553.50
2,GLALLEAKMKQLAERA,417.62
3,GLALMEAKMKQLAERA,16.52
4,GLALPEAKMKQLAERA,110.70
5,GLALREAKMKQLAERA,303.23
6,GLALSEAKMKQLAERA,61.66
7,GLALTEAKMKQLAERA,1107.01
8,GLALVEAKMKQLAERA,1107.01
9,GLALWAAKMKQLAERA,553.50
10,GLALWDAKMKQLAERA,51.13
11,GLALWEAEMKQLAERA,1107.01
12,GLALWEAKAKQLAERA,7.49
13,GLALWEAKFKQLAERA,369.00
14,GLALWEAKHKQLAERA,127.97
15,GLALWEAKIKQLAERA,101.08
16,GLALWEAKLKQLAERA,1107.01
